Measurements published in patent publication US20220144915A1, “STABILIZATION OF PRANDIAL OR BASAL INSULIN ANALOGUES BY AN INTERNAL DISELENIDE BRIDGE” (THE TRUSTEES OF INDIANA UNIVERSITY, priority 2019, published 2022).

Assays:
[1] = side-chain -SH versus -SeH; cited from earlier work
MCF-7 = experiment: Mitogenicity: cyclin D1 / cyclin G2 mRNA by q-RT-rtPCR in MCF-7 cells; format: cell-based, human
From the text: Increased expression of the gene encoding cyclin D1 and decreased expression of the gene encoding cyclin G2 are characteristic of cellular proliferation in response to signaling by mitogenic insulin analogues or IGFs.
An assay for relative mitogenicity among insulin analogues is provided by transcriptional signaling leading to reciprocal regulation of the genes encoding cyclin D1 and cyclin G2 (Glidden, M. D., et al. (2018) J. Biol. Chem. 293: 47-68).

Molecule | pKa [1] | mitogenic signature (cyclin D1 activation, cyclin G2 repression) (MCF-7)
N[C@@H](CS)C(=O)O [Cys, cysteine] | approximately 8.3 | 
N[C@@H](C[SeH])C(=O)O [Sec, selenocysteine] | approximately 5.2 | 
IGF-1: mitogenic growth factor, positive control |  | stimulates cyclin D1 transcription and inhibits cyclin G2 transciption to a more marked extent
